Experimental data from the supplement of paper PMC10307832.

Assays:
Assay in all cases: relative viability (nuclei count vs DMSO), 5 days (fraction); higher = more cells survive
[1] = test system: LCLC-103H
Outline: (§1)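 Relative viability is defined as nuclei in treated wells over nuclei in vehicle wells. Duplicate plates were run and medians reported. Lung cancer cell lines in 1536-well plates were dosed by pin tool one day after seeding, with one drug or with a fixed anchor-drug dose plus five library-drug doses (not always all listed) in √10 steps, and nuclei were counted after 5 days.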

[2] = test system: NCI-H2126
Outline: as §1

[3] = test system: NCI-H2347
Outline: as §1

[4] = test system: NCI-H1395
Outline: as §1

[5] = test system: CAL-12T
Outline: as §1

[6] = test system: ABC-1
Outline: as §1

[7] = test system: LU99A
Outline: as §1

[8] = test system: HCC-827
Outline: as §1

[9] = test system: RERF-LC-KJ
Outline: as §1

[10] = test system: SK-LU-1
Outline: as §1

[11] = test system: NCI-H1755
Outline: as §1

[12] = test system: LXF-289
Outline: as §1

[13] = test system: HCC-44
Outline: as §1

[14] = test system: NCI-H1944
Outline: as §1

[15] = test system: NCI-H1792
Outline: as §1

[16] = test system: ChaGo-K-1
Outline: as §1

[17] = test system: NCI-H322M
Outline: as §1

[18] = test system: NCI-H520
Outline: as §1

[19] = test system: NCI-H3122
Outline: as §1

[20] = test system: NCI-H1666
Outline: as §1

[21] = test system: NCI-H358
Outline: as §1

[22] = test system: NCI-H1793
Outline: as §1

CCNC(=O)c1noc(-c2cc(C(C)C)c(O)cc2O)c1-c1ccc(CN2CCOCC2)cc1 [Luminespib] + N=C(N)NC(=N)NCCc1ccccc1 [Phenformin] (partner 250 µM)
relative viability ([1]; first compound 0.002 µM): 0.322 | relative viability ([1]; first compound 0.006325 µM): 0.361 | relative viability ([1]; first compound 0.02 µM): 0.351 | relative viability ([1]; first compound 0.06325 µM): 0.353 | relative viability ([1]; first compound 0.2 µM): 0.188 | relative viability ([2]; first compound 0.002 µM): 0.523 | relative viability ([2]; first compound 0.006325 µM): 0.506 | relative viability ([2]; first compound 0.02 µM): 0.497 | relative viability ([2]; first compound 0.06325 µM): 0.279 | relative viability ([2]; first compound 0.2 µM): 0.307 | relative viability ([3]; first compound 0.002 µM): 0.406 | relative viability ([3]; first compound 0.006325 µM): 0.269 | relative viability ([3]; first compound 0.02 µM): 0.417 | relative viability ([3]; first compound 0.06325 µM): 0.381 | relative viability ([3]; first compound 0.2 µM): 0.198 | relative viability ([4]; first compound 0.002 µM): 0.448 | relative viability ([4]; first compound 0.006325 µM): 0.401 | relative viability ([4]; first compound 0.02 µM): 0.39 | relative viability ([4]; first compound 0.06325 µM): 0.326 | relative viability ([4]; first compound 0.2 µM): 0.335 | relative viability ([5]; first compound 0.002 µM): 0.578 | relative viability ([5]; first compound 0.006325 µM): 0.512 | relative viability ([5]; first compound 0.02 µM): 0.15 | relative viability ([5]; first compound 0.06325 µM): 0.101 | relative viability ([5]; first compound 0.2 µM): 0.0963 | relative viability ([6]; first compound 0.002 µM): 0.223 | relative viability ([6]; first compound 0.006325 µM): 0.272 | relative viability ([6]; first compound 0.02 µM): 0.241 | relative viability ([6]; first compound 0.06325 µM): 0.2 | relative viability ([6]; first compound 0.2 µM): 0.233 | relative viability ([7]; first compound 0.002 µM): 0.818 | relative viability ([7]; first compound 0.006325 µM): 0.71 | relative viability ([7]; first compound 0.02 µM): 0.535 | relative viability ([7]; first compound 0.06325 µM): 0.167 | relative viability ([7]; first compound 0.2 µM): 0.125 | relative viability ([8]; first compound 0.002 µM): 0.385 | relative viability ([8]; first compound 0.006325 µM): 0.384 | relative viability ([8]; first compound 0.02 µM): 0.369 | relative viability ([8]; first compound 0.06325 µM): 0.281 | relative viability ([8]; first compound 0.2 µM): 0.141 | relative viability ([9]; first compound 0.002 µM): 0.409 | relative viability ([9]; first compound 0.006325 µM): 0.418 | relative viability ([9]; first compound 0.02 µM): 0.512 | relative viability ([9]; first compound 0.06325 µM): 0.25 | relative viability ([9]; first compound 0.2 µM): 0.238 | relative viability ([10]; first compound 0.002 µM): 0.53 | relative viability ([10]; first compound 0.006325 µM): 0.411 | relative viability ([10]; first compound 0.02 µM): 0.192 | relative viability ([10]; first compound 0.06325 µM): 0.0958 | relative viability ([10]; first compound 0.2 µM): 0.0878 | relative viability ([11]; first compound 0.002 µM): 0.609 | relative viability ([11]; first compound 0.006325 µM): 0.552 | relative viability ([11]; first compound 0.02 µM): 0.552 | relative viability ([11]; first compound 0.06325 µM): 0.268 | relative viability ([11]; first compound 0.2 µM): 0.14 | relative viability ([12]; first compound 0.002 µM): 0.429 | relative viability ([12]; first compound 0.006325 µM): 0.482 | relative viability ([12]; first compound 0.02 µM): 0.593 | relative viability ([12]; first compound 0.06325 µM): 0.163 | relative viability ([12]; first compound 0.2 µM): 0.0721 | relative viability ([13]; first compound 0.002 µM): 0.245 | relative viability ([13]; first compound 0.006325 µM): 0.163 | relative viability ([13]; first compound 0.02 µM): 0.119 | relative viability ([13]; first compound 0.06325 µM): 0.0759 | relative viability ([13]; first compound 0.2 µM): 0.11 | relative viability ([14]; first compound 0.002 µM): 0.219 | relative viability ([14]; first compound 0.006325 µM): 0.189 | relative viability ([14]; first compound 0.02 µM): 0.205 | relative viability ([14]; first compound 0.06325 µM): 0.112 | relative viability ([14]; first compound 0.2 µM): 0.111 | relative viability ([15]; first compound 0.002 µM): 0.265 | relative viability ([15]; first compound 0.006325 µM): 0.263 | relative viability ([15]; first compound 0.02 µM): 0.101 | relative viability ([15]; first compound 0.06325 µM): 0.0593 | relative viability ([15]; first compound 0.2 µM): 0.077 | relative viability ([16]; first compound 0.002 µM): 0.504 | relative viability ([16]; first compound 0.006325 µM): 0.456 | relative viability ([16]; first compound 0.02 µM): 0.467 | relative viability ([16]; first compound 0.06325 µM): 0.303 | relative viability ([16]; first compound 0.2 µM): 0.152 | relative viability ([17]; first compound 0.002 µM): 0.801 | relative viability ([17]; first compound 0.006325 µM): 0.729 | relative viability ([17]; first compound 0.02 µM): 0.717 | relative viability ([17]; first compound 0.06325 µM): 0.287 | relative viability ([17]; first compound 0.2 µM): 0.278 | relative viability ([18]; first compound 0.002 µM): 0.634 | relative viability ([18]; first compound 0.006325 µM): 0.537 | relative viability ([18]; first compound 0.02 µM): 0.248 | relative viability ([18]; first compound 0.06325 µM): 0.138 | relative viability ([18]; first compound 0.2 µM): 0.191 | relative viability ([19]; first compound 0.002 µM): 0.427 | relative viability ([19]; first compound 0.006325 µM): 0.32 | relative viability ([19]; first compound 0.02 µM): 0.132 | relative viability ([19]; first compound 0.06325 µM): 0.0959 | relative viability ([19]; first compound 0.2 µM): 0.0895 | relative viability ([20]; first compound 0.002 µM): 0.583 | relative viability ([20]; first compound 0.006325 µM): 0.533 | relative viability ([20]; first compound 0.02 µM): 0.574 | relative viability ([20]; first compound 0.06325 µM): 0.532 | relative viability ([20]; first compound 0.2 µM): 0.538 | relative viability ([21]; first compound 0.002 µM): 0.348 | relative viability ([21]; first compound 0.006325 µM): 0.356 | relative viability ([21]; first compound 0.02 µM): 0.152 | relative viability ([21]; first compound 0.06325 µM): 0.0546 | relative viability ([21]; first compound 0.2 µM): 0.0585 | relative viability ([22]; first compound 0.002 µM): 0.367 | relative viability ([22]; first compound 0.006325 µM): 0.373 | relative viability ([22]; first compound 0.02 µM): 0.151 | relative viability ([22]; first compound 0.06325 µM): 0.102 | relative viability ([22]; first compound 0.2 µM): 0.138
